From patent publication US20250268887A1, “THERAPEUTIC USES OF BRADYKININ B2-RECEPTOR ANTAGONISTS” (Pharvaris GmbH, priority 2022, published 2025) come the findings set out here.

This series in a line: Elimination half-life. The settings on record: human, in vivo.

The molecule `[2H][C@@](C)(NC(=O)COC(F)F)c1cc(F)cc(Cl)c1COc1cccc2c(-c3ncnn3C)cc(C)nc12` [PHA-022121, (S)-N-(1-deutero-1-(3-chloro-5-fluoro-2-((2-methyl-4-(1-methyl-1H-1,2,4-triazol-5-yl)quinolin-8-yloxy)methyl)phenyl)ethyl)-2-(difluoromethoxy)acetamide] had a half-life of approximately 4 h.

The half-life is how long it takes for the measured level to halve. A higher half-life goes with slow decline.
